# According to patent US12576135B2, “Compositions and methods for anti-TnMUC1 gold CAR t-cells” (Chimera Bioengineering, Inc., priority 2021, dated 2026):
# pIC50: −log10 of the molar value.
# Target: mTORC1 (Homo sapiens, UniProt P42345)
# Assay: not given
# Conditions: cited from earlier work
row,SMILES,pIC50
1,CO[C@H]1C[C@@H]2CC[C@@H](C)[C@@](O)(O2)C(=O)C(=O)N2CCCC[C@H]2C(=O)O[C@H]([C@H](C)C[C@@H]2CC[C@@H](OCCO)[C@H](OC)C2)CC(=O)[C@H](C)/C=C(\C)[C@@H](O)[C@@H](OC)C(=O)[C@H](C)C[C@H](C)/C=C/C=C/C=C/1C [Everolimus],8.59 to 8.74
2,CNC(=O)Nc1ccc(-c2nc(N3CC4CCC(C3)O4)c3cnn(C4CCC5(CC4)OCCO5)c3n2)cc1 [WYE-125132],9.72

# System: primary T-cells
# Assay: Rapamycin inhibition of Gold controlled nano-luciferase in anti-DLL3 CAR primary T-cells mixed with SHP-77 cells
# Type: cell-based
# Conditions: Concurrent Rx and Delay Rx; 24, 48, 72 hours
# Source text: A bicistronic vector with an anti-DLL3-CAR and nano-luceiferase under the control of an IFNg Gold element is made using the methods and materials described above. This bicistronic vector is transduced into primary T-cells, and transduced T-cells are obtained. When the transduced T-cells are mixed with SHP-77 cells that display the DLL3 antigen, the primary T-cells are activated and nano-luciferase is expressed.
# The ability of rapamycin to inhibit the expression of nano-luciferase following activation of the primary T-cells was tested. Primary T-cells transduced with the bicistronic vector encoding the anti-DLL3 CAR and nano-luciferase were mixed with SHP-77 cells and then three treatment regimens were used. No rapamycin (NoRx), rapamycin added concurrently with the SHP-77 cells (Concurrent Rx), or rapamycin added 24 hours after SHP-77 cells was added (Delay Rx). New media was mixed with the cells every 24 hours. If the cells had received rapamycin in the media in the earlier time period, rapamycin was included with the media at subsequent media changes.
# FIG. 22 normalizes the nano-luciferase activity to that of the NoRx sample. Levels of nano-luciferase were measured at 24 hours, 48 hours and 72 hours post mixing with SHP-77 cells.
row,SMILES,expression of nano-luciferase normalized to NoRx
1,CO[C@H]1C[C@@H]2CC[C@@H](C)[C@@](O)(O2)C(=O)C(=O)N2CCCC[C@H]2C(=O)O[C@H]([C@H](C)C[C@@H]2CC[C@@H](O)[C@H](OC)C2)CC(=O)[C@H](C)/C=C(\C)[C@@H](O)[C@@H](OC)C(=O)[C@H](C)C[C@H](C)/C=C/C=C/C=C/1C [Rapamycin/sirolimus],reduced expression of nano-luciferase

# System: PI3K
# Assay: not given
# Conditions: cited from earlier work
row,SMILES,pIC50
1,COc1ccc(-c2ccc3c(N4CCOC[C@@H]4C)nc(N4CCOC[C@@H]4C)nc3n2)cc1CO [AZD8055],5.44
2,COc1ccc(-c2ccc3c(N4CCOCC4)nc(N4C[C@@H](C)O[C@@H](C)C4)nc3n2)cc1CO [KU-0063794],< 5.00
5,CCC(=O)N1CCN(c2ccc(-n3c(=O)ccc4cnc5ccc(-c6cnc7ccccc7c6)cc5c43)cc2C(F)(F)F)CC1 [Torin 1],6.60
6,Nc1ccc(-c2ccc3ncc4ccc(=O)n(-c5cccc(C(F)(F)F)c5)c4c3c2)cn1 [Torin 2],8.33
7,CNC(=O)Nc1ccc(-c2nc(N3CC4CCC(C3)O4)c3cnn(C4CCC5(CC4)OCCO5)c3n2)cc1 [WYE-125132],5.93
